Assays:
[1] = Tolerability of intravesical RTX in healthy cats (physical exam, blood count, chemistry); type: in vivo, cat; conditions: healthy cats, 5, 25 or 50 mcg intravesical, during or post administration
Procedure: To examine the effect of intravesical instillation of RTX on the bladder, 6 healthy cats, between the 2-5 years of age, were treated with either 5 (low dose), 25 (mid dose) or 50 mcg (high dose) of RTX (volume was 25 ml; concentrations were 0.2, 1, and 2 mcg/ml). These doses are considered equivalent to administration of 20, 100, or 200 mcg in a human with a volume of 100 ml. A seventh cat received saline only and served as the control. The bladders of the anesthetized cats were emptied and then flushed with sterile saline via a foley urinary catheter. Once the saline was removed, the treatment with RTX (test cats) or saline alone (control cat) was administered over 60 seconds and left in the bladder for 20 minutes.
A physical exam, complete blood count and chemistry parameters were performed on day 0, 7, and 14. Complete blood count and chemistry parameters were analyzed at the Clinical Pathology Laboratory at the University of Georgia. Food consumption and signs of abnormal urination were monitored through the study period.

[2] = test system: CGRP and SP nerve fibers innervating dog bladder; experiment: Density of CGRP and SP axons in canine bladder (IHC, confocal); type: in vivo; conditions: dogs
Procedure: Canine bladders from a healthy dog (control) and from dogs with intravesical application of resiniferatoxin (RTX) at 2 different doses (25 mcg and 250 mcg) were prepared for immunohistochemistry and confocal laser microscopy to quantify the axons expressing substance P (SP) and calcitonin-gene related peptide (CGRP). Confocal images were obtained at 40× magnification using a Carl Zeiss scanning confocal laser microscope (model LSM 800, Jena, Germany) with Z-stack function.

[3] = test system: cats with FIC (Feline Idiopathic Cystitis); experiment: VSOM in cats with Feline Idiopathic Cystitis; type: in vivo, cat
Procedure: The effectiveness and safety of a single intravesical instillation with RTX was evaluated for the management of clinical and behavioral signs associated with non-obstructive FIC in cats. The primary effectiveness endpoint was the improvement in a Veterinary-specific Outcome Measure (VSOM) and Cystitis Events Survey on day 28.
The total VSOM is the sum of three individual VSOM scores that each have an integer value in the range of 1 to 5. Each individual VSOM score corresponds to a clinical sign/activity/behavior selected as relevant to FIC for an individual cat by the cat's owner or legal representative with the help of the Investigator. An example of a clinical sign/activity/behavior is pain or resentfulness on palpation. The minimum possible score for each individual VSOM score is 1, which indicates no problem, and the maximum is 5, which indicates an impossible activity/behavior or a maximum severity clinical sign. The minimum and maximum total VSOM scores are 3 and 15. On screening days (e.g., Day 0 and Day 28), the Investigator completed the VSOM questionnaire and assigned a score to each of the 3 clinical signs/activities/behaviours that were selected.
(§1) Treatment success was defined as “a reduction of at least 2 in total VSOM score at Day 3 and 28 compared to VSOM score at day 0.” A decrease of less than 2, no change, or an increase in total score was defined as treatment failure. Cats presenting an increase in any individual VSOM score were considered a treatment failure regardless of total VSOM score.
RTX was provided as a 25 μg/mL (2.4 mL) solution, formulated with polysorbate, glucose, and phosphate buffer, and diluted in saline to 1 μg/mL before instillation. Intravesical instillation: After the cat has reached an adequate anesthesia level, the perineal area was prepared using a standard aseptic technique. After preparation, a urinary catheter (type and size decided on a case by case basis) was placed using aseptic technique. Then, the urinary bladder was emptied and flushed with 20 ml of sterile saline. Once the flush solution was removed, the RTX solution was infused through the urinary catheter over 2 minutes. Once the total volume of the solution is infused, the solution was left in the urinary bladder for 20 min. At the end of this period the IVP (investigational veterinary product) solution was removed. Finally, the urinary catheter was removed, and the perineal area was flushed with 20 ml of saline. The total amount of solution removed from the bladder was recorded.
24 cats were treated and the cohorts and their respective IVP treatments are described in the table 9 below. The cohorts were populated and dosed sequentially. Cats enrolled in Cohorts 2, 3 and 4 were dosed at least 3 days after the previous cohort closed.

[4] = test system: cats with FIC (Feline Idiopathic Cystitis); experiment: VSOM and Cystitis Events Survey combined effect in FIC cats; type: in vivo, cat; conditions: for Cystitis ≥2 and VSOM ≥2 Point success, cats n/N / Cystitis ≥3 and VSOM ≥2 Point success, cats n/N / Cystitis ≥3 and VSOM ≥2 Point success, percent of cats / Cystitis ≥2 and VSOM ≥2 Point success, percent of cats: Day 28
Text: as §1
The use of the Cystitis Events Survey was exploratory, and no strict definition of success was applied to the results. However, and based on published literature, the results were described as follows: (1) percentage of cats per cohort with an average improvement of 2 or more points and no increase in any individual score on Day 28; and (2) percentage of cats per cohort with an average improvement of 3 or more points and no increase in any individual score on Day 28.
When the results were combined for VSOM improvement of ≥2 and cystitis improvement of ≥3, the effectiveness decreased from 100% to 80% (see Cohort 1). […] Overall, the decrease was approximately 20% in Cohorts 1-2.

[5] = Overall (Cohorts 1-4), Day 28 vs Day 0

C=C(C)[C@]12C[C@@H](C)[C@@]34O[C@](Cc5ccccc5)(O[C@@H]1[C@@H]3C=C(COC(=O)Cc1ccc(O)c(OC)c1)C[C@]1(O)C(=O)C(C)=C[C@@H]41)O2 [RTX, resiniferatoxin]
Tolerability / clinical adverse effects [1]: well tolerated with no clinical adverse effects noted
CGRP and SP axons innervating the bladder body ([2]; 25 mcg and 250 mcg intravesical, vs control dog): drastic reduction
density of CGRP and SP nerve fibers innervating the body, trigon, and fundus ([2]; 25 mcg and 250 mcg, vs control tissue): reduced
effect of 250 mcg in reducing density of CGRP and SP compared with 25 mcg ([2]; 250 mcg vs 25 mcg): greater effect
VSOM, Maximum ([3]; 25 μg (1 μg/mL), Day 0, n 6): 12.0
VSOM, Minimum ([3]; 25 μg (1 μg/mL), Day 28, n 5): 0.0
VSOM treatment failure, number of cats [3, 5]: 5 n
VSOM treatment success, number of cats [3, 5]: 17 n
VSOM treatment success, percent of cats [3, 5]: (77.2%)
Cystitis ≥2 and VSOM ≥2 Point success, cats n/N ([4]; 6.25 μg/25 mL (Cohort 2)): 3/6
Cystitis ≥3 and VSOM ≥2 Point success, cats n/N ([4]; 6.25 μg/25 mL (Cohort 2)): 2/6
Cystitis ≥3 and VSOM ≥2 Point success, percent of cats ([4]; 6.25 μg/25 mL (Cohort 2)): (33.3%)
Cystitis ≥2 and VSOM ≥2 Point success, cats n/N ([4]; 12.5 μg/10 mL (Cohort 4)): 4/6
Cystitis ≥2 and VSOM ≥2 Point success, percent of cats ([4]; 12.5 μg/10 mL (Cohort 4)): (66.7%)
Cystitis ≥3 and VSOM ≥2 Point success, cats n/N ([4]; 12.5 μg/10 mL (Cohort 4)): 4/6
Cystitis ≥3 and VSOM ≥2 Point success, percent of cats ([4]; 12.5 μg/10 mL (Cohort 4)): (66.7%)
Cystitis ≥2 and VSOM ≥2 Point success, cats n/N ([4]; 12.5 μg/25 mL (Cohort 3)): 6/6
Cystitis ≥2 and VSOM ≥2 Point success, percent of cats ([4]; 12.5 μg/25 mL (Cohort 3)): (100%)
Cystitis ≥3 and VSOM ≥2 Point success, cats n/N ([4]; 12.5 μg/25 mL (Cohort 3)): 6/6
Cystitis ≥3 and VSOM ≥2 Point success, percent of cats ([4]; 12.5 μg/25 mL (Cohort 3)): (100%)
Cystitis ≥2 and VSOM ≥2 Point success, cats n/N ([4]; 25 μg/25 mL (Cohort 1)): 4/5
Cystitis ≥2 and VSOM ≥2 Point success, percent of cats ([4]; 25 μg/25 mL (Cohort 1)): (80%)
Cystitis ≥3 and VSOM ≥2 Point success, cats n/N ([4]; 25 μg/25 mL (Cohort 1)): 4/5
decrease in effectiveness when VSOM and cystitis results are combined ([4]; Cohorts 1-2, overall): approximately 20%

Source: US20230270713A1, “Administration of Resiniferatoxin For Treatment of Bladder Pain or Bladder Cancer” (Sorrento Therapeutics, Inc., priority 2020, published 2023)
